Each structure is given as a SMILES string.

The nature of data set [1]: saRNA loading / encapsulation efficiency, Quant-IT RiboGreen assay. The following applies: LNP lipid:DOPE:Cholesterol:DMG-PEG 35:20:43.5:1.5, firefly luciferase saRNA. The format is physicochemical. The procedure: The saRNA loading in LNP formulations was quantified using a Quant-IT RiboGreen assay (Thermo Fisher Scientific, Waltham, Massachusetts, USA) as previously described. 14 samples were diluted tenfold in 1x Tris HCL-EDTA (TE) buffer (10 mM Tris-HCL, 1 mM EDTA, pH 7.5) with or without 2% (v/v) Triton X-100 (Sigma-Aldrich, Saint Louis, Missouri, USA). Standard solutions were also prepared in 1xTE with or without 2% (v/v) Triton X-100 to account for any variation in fluorescence. The assay was performed according to the manufacturer's protocol. Samples were loaded on a black 96-well plate and analysed for fluorescence on a microplate reader (Tecan Infinite® 200 PRO) at an excitation of 485 nm and emission at 528 nm. Encapsulation efficiency was calculated between 80-100%.

A short description of data set [2]: Weight evolution of the animals following administration of LNPs. The data set is classed as in vivo. Conditions: female SWISS mice. The procedure: (§1) Female SWISS mice (6 weeks old) were purchased from Janvier Laboratories (Paris, France) and kept in individually ventilated cages with access to food and water ad libitum. Mice were anesthetized with isoflurane (Zoetis, Louvain-La-Neuve, Belgium) (5% for induction and 2% for maintenance) and intramuscularly injected with a total of 1 μg in 100 μL Tris-HCL (50 μL per leg) LNP-formulated luciferase saRNA (for each group n=7). The expression of the luciferase induced bioluminescence was measured via non-invasive In vivo bioluminescent imaging (In vivo Imaging System (IVIS) Lumina III, Perkin Elmer, Waltham, Massachusetts, USA), 10 minutes after subcutaneous injection of […] of D-luciferin (GoldBio, Saint Louis, Missouri, USA, #LUCK-1G) were measured in day 0 (before injection), day 1, day 3, day 5, day 7, day 10, day 15 and day 20.

The subject of data set [3] is expression of the luciferase saRNA. As to the kind of experiment: In vivo bioluminescent imaging after intramuscular injection of LNP-formulated luciferase saRNA. Conditions: 1 μg LNP-formulated luciferase saRNA intramuscularly, female SWISS mice. The procedure: as §1
Data set [4] is described as follows: LNP particle size, polydispersity index and charge by Zeta Sizer. The data set is classed as physicochemical. Conditions: LNP lipid:DOPE:Cholesterol:DMG-PEG 35:20:43.5:1.5, firefly luciferase saRNA; for Polydispersity Index (PI) / Z-average (nm): N/P approx. 40/1. The procedure: Cationic lipids, DOPE, Cholesterol and DMG-PEG lipid were solubilized in ethanol or DMSO at a molar ratio of 35:20:43.5:1.5 and a concentration of 100:25:20:25 μg/μL for C12-200 or 170:25:20:25 μg/μL for the comparator lipids. Lipid nanoparticles (LNP) were prepared by targeting an N/P ratio of approximately 40/1 with saRNA. Briefly, the firefly luciferase saRNA of approximately 9659 nucleotides was diluted to 0.5 mg/mL in 5 mM citrate buffer, pH 4.5. Microfluidic mixer (Ignite from Precision Nanosystems, California, USA) was used to mix the lipid solution with the saRNA aqueous solution at a ratio of about 1:3 (vol/vol) with total flow rates above 10 ml/min. The ethanol was then removed, and the external buffer replaced with 10 mM TRIS-HCL, PH 7.4, by dialysis. Finally, the lipid nanoparticles were filtered through a 0.2 μm pore sterile filter. Lipid nanoparticle particle size was 50-150 nm diameter and polydispersity index (PI) of 0.1-0.4 as determined by Zeta Sizer (Malvern Panalytical, UK). The charge of the formulation was also measured by Zeta Sizer and ranged between 20 to −20 mV.

Setting [5] is: Day 1, 1 μg LNP-formulated saRNA intramuscularly.
[6] abbreviates: Day 3, 1 μg LNP-formulated saRNA intramuscularly.
Where [7] appears, read: Day 5, 1 μg LNP-formulated saRNA intramuscularly.
[8] abbreviates: Day 7, 1 μg LNP-formulated saRNA intramuscularly.
[9] abbreviates: Day 10, 1 μg LNP-formulated saRNA intramuscularly.
The mark [10] stands for this setting: Day 15, 1 μg LNP-formulated saRNA intramuscularly.
[11] abbreviates: Day 20, 1 μg LNP-formulated saRNA intramuscularly.

For the compound `CCCCCCC(CCCC)C(=O)OCCCCN(CCCCOC(=O)C(CCCC)CCCCCC)CCN(CCCCOC(=O)C(CCCC)CCCCCC)CCN1CCN(CCN(CCCCOC(=O)C(CCCC)CCCCCC)CCCCOC(=O)C(CCCC)CCCCCC)CC1` (centres unmarked) [Compound 9-27, ((2-(4-(2-((2-(bis(4-((2-butyloctanoyl)oxy)butyl)amino)ethyl) (4-((2-butyloctanoyl)oxy)butyl)amino)ethyl)piperazin-1-yl)ethyl)azanediyl) bis(butane-4,1-diyl)bis(2-butyloctanoate)], in data set [1], the “Encapsulation (%)” value turned out to be 93.93%. Also, the “Weight” value came out at 27.51 g in data set [2] (Day 0); 26.21 g in data set [2] (setting [5]); 28.67 g in data set [2] (setting [6]); 28.56 g in data set [2] (setting [7]); 29.01 g in data set [2] (setting [8]); 29.61 g in data set [2] (setting [9]). Moreover, the results for the “Weight” value in data set [2] (setting [10]) and in data set [2] (setting [11]) were 30.77 g and 31.87 g, respectively. The “Bioluminescence expression of LNPs” value in data set [3] (Day 1) is 4.09E+07; in data set [3] (Day 3), 1.51E+09; in data set [3] (Day 5), 1.35E+09; in data set [3] (Day 7), 9.33E+08; in data set [3] (Day 10), 2.88E+06; in data set [3] (Day 15), 2.77E+05. In addition, the “Bioluminescence expression of LNPs” value in data set [3] (Day 20) was 1.87E+05. In data set [4], the “Zetapotential (mV)” value is −10.65 mV. Moreover, in data set [4], the “Polydispersity Index (PI)” value is recorded as 0.18. Besides, the “Z-average (nm)” value in data set [4] worked out at 65.27 nm.
Regarding `CCCCCCCCC(CCCCCC)C(=O)OCCN(CCOC(=O)C(CCCCCC)CCCCCCCC)CCN(CCOC(=O)C(CCCCCC)CCCCCCCC)CCN1CCN(CCN(CCOC(=O)C(CCCCCC)CCCCCCCC)CCOC(=O)C(CCCCCC)CCCCCCCC)CC1` (centres unmarked) [Compound 9-29, ((2-(4-(2-((2-(bis(2-((2-hexyldecanoyl)oxy)ethyl)amino)ethyl) (2-((2-hexyldecanoyl)oxy)ethyl)amino)ethyl)piperazin-1-yl)ethyl)azanediyl)bis(ethane-2,1-diyl) bis(2-hexyldecanoate)], the “Encapsulation (%)” value in data set [1] turned out to be 94.31%. Further, the “Weight” value in data set [2] (Day 0) was 29.59 g; in data set [2] (setting [5]), 29.53 g; in data set [2] (setting [6]), 29.74 g; in data set [2] (setting [7]) it was 30.04 g; in data set [2] (setting [8]), 30.93 g; in data set [2] (setting [9]) it was 30.63 g. Further, the “Weight” value in data set [2] (setting [10]) is on record as 30.89 g; in data set [2] (setting [11]) it was 32.69 g. In addition, the “Bioluminescence expression of LNPs” value came to 4.13E+05 in data set [3] (Day 1); 1.68E+07 in data set [3] (Day 3); 4.25E+07 in data set [3] (Day 5); 6.13E+07 in data set [3] (Day 7); 3.92E+07 in data set [3] (Day 10); 1.44E+06 in data set [3] (Day 15). In addition, the “Bioluminescence expression of LNPs” value in data set [3] (Day 20) came to 5.43E+05. The “Zetapotential (mV)” value in data set [4] was −10.51 mV. Further, in data set [4], the “Polydispersity Index (PI)” value was 0.15. In addition, the “Z-average (nm)” value in data set [4] was 102.48 nm.
With `CCCCCCCCC(CCCCCC)C(=O)OCCCCN(CCCCOC(=O)C(CCCCCC)CCCCCCCC)CCN(CCCCOC(=O)C(CCCCCC)CCCCCCCC)CCN1CCN(CCN(CCCCOC(=O)C(CCCCCC)CCCCCCCC)CCCCOC(=O)C(CCCCCC)CCCCCCCC)CC1` (centres unmarked) [Compound 9-30, ((2-(4-(2-((2-(bis(4-((2-hexyldecanoyl)oxy)butyl)amino)ethyl) (4-((2-hexyldecanoyl)oxy)butyl)amino)ethyl)piperazin-1-yl)ethyl)azanediyl) bis(butane-4,1-diyl)bis(2-hexyldecanoate)], the “Encapsulation (%)” value in data set [1] is 94.22%. The “Weight” value in data set [2] (Day 0) was 29.39 g; in data set [2] (setting [5]) it was 28.23 g; in data set [2] (setting [6]), 29.73 g; in data set [2] (setting [7]), 29.77 g; in data set [2] (setting [8]) it was 30.46 g; in data set [2] (setting [9]), 31.20 g. In addition, the figures for the “Weight” value in data set [2] (setting [10]) and in data set [2] (setting [11]) were 30.96 g and 32.00 g, respectively. In addition, the “Bioluminescence expression of LNPs” value in data set [3] (Day 1) is reported as 2.31E+06; in data set [3] (Day 3) it was 2.87E+07; in data set [3] (Day 5), 6.18E+07; in data set [3] (Day 7) it was 9.09E+07; in data set [3] (Day 10) it was 2.84E+07; in data set [3] (Day 15), 1.67E+05. For the same compound, the “Bioluminescence expression of LNPs” value in data set [3] (Day 20) is 1.67E+05. For the same compound, the “Zetapotential (mV)” value in data set [4] is −8.56 mV. Further, in data set [4], the “Polydispersity Index (PI)” value amounted to 0.17. In data set [4], the “Z-average (nm)” value amounted to 115.36 nm.
`CCCCCCC(CCCC)C(=O)OCCN(CCOC(=O)C(CCCC)CCCCCC)CCN1CCN(CCN(CCOC(=O)C(CCCC)CCCCCC)CCOC(=O)C(CCCC)CCCCCC)CC1` (centres unmarked) [Compound 9-32, ((piperazine-1,4-diylbis(ethane-2,1-diyl))bis(azanetriyl))tetrakis(ethane-2,1-diyl) tetrakis(2-butyloctanoate)]: the “Encapsulation (%)” value in data set [1] is recorded as 93.33%. In addition, the “Weight” value in data set [2] (Day 0) is listed as 27.00 g; in data set [2] (setting [5]), 26.94 g; in data set [2] (setting [6]) it was 28.46 g; in data set [2] (setting [7]), 28.26 g; in data set [2] (setting [8]), 28.11 g; in data set [2] (setting [9]) it was 27.91 g. Further, the entries for the “Weight” value in data set [2] (setting [10]) and in data set [2] (setting [11]) were 29.69 g and 30.94 g, respectively. Besides, the “Bioluminescence expression of LNPs” value was found to be 5.13E+06 in data set [3] (Day 1); 1.31E+08 in data set [3] (Day 3); 2.76E+08 in data set [3] (Day 5); 3.71E+08 in data set [3] (Day 7); 1.08E+07 in data set [3] (Day 10); 6.35E+05 in data set [3] (Day 15). In addition, the “Bioluminescence expression of LNPs” value in data set [3] (Day 20) was found to be 1.29E+05. For the same compound, the “Zetapotential (mV)” value in data set [4] is on record as −16.38 mV. In addition, the “Polydispersity Index (PI)” value in data set [4] stood at 0.17. In addition, the “Z-average (nm)” value in data set [4] is listed as 54.53 nm.
As for `CCCCCCC(CCCC)C(=O)OCCCCN(CCCCOC(=O)C(CCCC)CCCCCC)CCN1CCN(CCN(CCCCOC(=O)C(CCCC)CCCCCC)CCCCOC(=O)C(CCCC)CCCCCC)CC1` (centres unmarked) [Compound 9-33, ((piperazine-1,4-diylbis(ethane-2,1-diyl))bis(azanetriyl))tetrakis(butane-4,1-diyl) tetrakis(2-butyloctanoate)], in data set [1], the “Encapsulation (%)” value is listed as 92.26%. Moreover, the “Weight” value is on record as 26.83 g in data set [2] (Day 0); 25.36 g in data set [2] (setting [5]); 27.37 g in data set [2] (setting [6]); 26.96 g in data set [2] (setting [7]); 27.29 g in data set [2] (setting [8]); 27.20 g in data set [2] (setting [9]). Further, the “Weight” value in data set [2] (setting [10]) is on record as 28.79 g; in data set [2] (setting [11]), 29.60 g. Also, the “Bioluminescence expression of LNPs” value in data set [3] (Day 1) is 3.79E+07; in data set [3] (Day 3) it was 6.90E+08; in data set [3] (Day 5), 1.45E+09; in data set [3] (Day 7) it was 1.02E+09; in data set [3] (Day 10), 5.76E+06; in data set [3] (Day 15), 5.96E+05. For the same compound, the “Bioluminescence expression of LNPs” value in data set [3] (Day 20) turned out to be 1.21E+05. In data set [4], the “Zetapotential (mV)” value is on record as −13.70 mV. For the same compound, in data set [4], the “Polydispersity Index (PI)” value is 0.22. Moreover, the “Z-average (nm)” value in data set [4] is reported as 86.24 nm.

The values are drawn from patent US20250236599A1, “LIPID NANOPARTICLES FOR OLIGONUCLEOTIDE DELIVERY” (ZIPHIUS NV, priority 2021, published 2025).
